Assay results as given in ChEMBL document CHEMBL2177017, “Vascular endothelial growth factor (VEGF) receptors: drugs and new inhibitors” (J Med Chem, 2012).

How the values were obtained:
[1] = organism: Danio rerio; experiment: Antiangiogenic activity in zebrafish embryos assessed as inhibition of intersegmental vessel growth at 2.5 uM; format: functional, Embryo
[2] = molecular target: Vascular endothelial growth factor receptor 2 (Homo sapiens, UniProt P35968); experiment: Inhibition of VEGFR2
[3] = tested on: SW-620; experiment: Antitumor activity against human SW620 cells xenografted mouse assessed as inhibition of tumor growth at 100 mg/kg qd for 18 days; format: functional; settings: SW-620, 432 h, read-out: TGI
[4] = tested on: HUVEC; experiment: Antiangiogenic activity in HUVEC assessed as inhibition of tube formation at 10 uM; format: functional; settings: Homo sapiens
[5] = tested on: HepG2; experiment: Antitumor activity against human HepG2 cells xenografted mouse assessed as inhibition of tumor growth at 100 mg/kg qd for 18 days; format: functional; settings: HepG2, 432 h, read-out: TGI
[6] = molecular target: Vascular endothelial growth factor receptor 1 (Homo sapiens, UniProt P17948); experiment: Inhibition of VEGFR1
[7] = molecular target: Fibroblast growth factor receptor 1 (Homo sapiens, UniProt P11362); experiment: Inhibition of FGFR1
[8] = molecular target: Fibroblast growth factor receptor 2 (Homo sapiens, UniProt P21802); experiment: Inhibition of FGFR2
[9] = molecular target: Vascular endothelial growth factor receptor 3 (Homo sapiens, UniProt P35916); experiment: Inhibition of VEGFR3
[10] = molecular target: Mast/stem cell growth factor receptor Kit (Homo sapiens, UniProt P10721); experiment: Inhibition of c-Kit
[11] = molecular target: Platelet-derived growth factor receptor beta (Homo sapiens, UniProt P09619); experiment: Inhibition of PDGFRbeta
[12] = Inhibition of FGFRbeta
[13] = tested on: Mus musculus; experiment: Antitumor activity against human tumor xenografted athymic mouse assessed as inhibition of tumor growth; format: functional
[14] = molecular target: RAF proto-oncogene serine/threonine-protein kinase (Homo sapiens, UniProt P04049); experiment: Inhibition of c-Raf
[15] = molecular target: Tyrosine-protein kinase Lck (Homo sapiens, UniProt P06239); experiment: Inhibition of LCK

Chain of Vascular endothelial growth factor receptor 3 (P35916 whole entry): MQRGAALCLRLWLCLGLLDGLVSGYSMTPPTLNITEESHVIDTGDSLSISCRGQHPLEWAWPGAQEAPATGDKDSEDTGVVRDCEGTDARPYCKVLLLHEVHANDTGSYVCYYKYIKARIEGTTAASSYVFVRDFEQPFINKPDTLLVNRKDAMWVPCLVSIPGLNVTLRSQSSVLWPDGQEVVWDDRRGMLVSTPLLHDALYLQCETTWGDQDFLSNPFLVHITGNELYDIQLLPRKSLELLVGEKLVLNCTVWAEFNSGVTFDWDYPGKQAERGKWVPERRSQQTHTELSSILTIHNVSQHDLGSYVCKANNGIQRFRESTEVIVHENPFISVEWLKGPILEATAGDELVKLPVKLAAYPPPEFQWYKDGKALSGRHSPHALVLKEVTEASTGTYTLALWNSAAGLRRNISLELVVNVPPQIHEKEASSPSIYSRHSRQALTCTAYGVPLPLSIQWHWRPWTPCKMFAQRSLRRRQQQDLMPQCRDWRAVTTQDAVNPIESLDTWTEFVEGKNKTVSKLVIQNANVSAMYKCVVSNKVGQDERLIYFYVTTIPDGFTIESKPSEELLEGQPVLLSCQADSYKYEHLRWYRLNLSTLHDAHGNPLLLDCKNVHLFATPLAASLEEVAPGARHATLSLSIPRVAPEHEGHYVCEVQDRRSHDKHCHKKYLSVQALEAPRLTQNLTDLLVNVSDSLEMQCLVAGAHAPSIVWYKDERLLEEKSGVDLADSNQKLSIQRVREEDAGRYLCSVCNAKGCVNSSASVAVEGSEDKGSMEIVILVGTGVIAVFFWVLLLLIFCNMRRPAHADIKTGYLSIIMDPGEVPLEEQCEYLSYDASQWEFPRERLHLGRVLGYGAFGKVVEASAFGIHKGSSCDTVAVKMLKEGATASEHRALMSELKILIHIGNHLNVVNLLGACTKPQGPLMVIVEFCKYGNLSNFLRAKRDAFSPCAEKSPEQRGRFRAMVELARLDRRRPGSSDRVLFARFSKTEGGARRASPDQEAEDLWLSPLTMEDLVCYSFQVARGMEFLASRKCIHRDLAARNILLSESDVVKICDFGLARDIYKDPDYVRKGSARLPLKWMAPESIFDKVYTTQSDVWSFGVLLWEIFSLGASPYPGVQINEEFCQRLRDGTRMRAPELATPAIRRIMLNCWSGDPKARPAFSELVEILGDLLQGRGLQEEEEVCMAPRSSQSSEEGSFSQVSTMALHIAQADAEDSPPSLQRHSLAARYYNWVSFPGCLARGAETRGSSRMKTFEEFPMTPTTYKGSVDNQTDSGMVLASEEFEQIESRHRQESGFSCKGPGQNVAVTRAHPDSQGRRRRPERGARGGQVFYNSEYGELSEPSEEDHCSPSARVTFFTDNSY
Chain of Vascular endothelial growth factor receptor 2 (P35968 whole entry): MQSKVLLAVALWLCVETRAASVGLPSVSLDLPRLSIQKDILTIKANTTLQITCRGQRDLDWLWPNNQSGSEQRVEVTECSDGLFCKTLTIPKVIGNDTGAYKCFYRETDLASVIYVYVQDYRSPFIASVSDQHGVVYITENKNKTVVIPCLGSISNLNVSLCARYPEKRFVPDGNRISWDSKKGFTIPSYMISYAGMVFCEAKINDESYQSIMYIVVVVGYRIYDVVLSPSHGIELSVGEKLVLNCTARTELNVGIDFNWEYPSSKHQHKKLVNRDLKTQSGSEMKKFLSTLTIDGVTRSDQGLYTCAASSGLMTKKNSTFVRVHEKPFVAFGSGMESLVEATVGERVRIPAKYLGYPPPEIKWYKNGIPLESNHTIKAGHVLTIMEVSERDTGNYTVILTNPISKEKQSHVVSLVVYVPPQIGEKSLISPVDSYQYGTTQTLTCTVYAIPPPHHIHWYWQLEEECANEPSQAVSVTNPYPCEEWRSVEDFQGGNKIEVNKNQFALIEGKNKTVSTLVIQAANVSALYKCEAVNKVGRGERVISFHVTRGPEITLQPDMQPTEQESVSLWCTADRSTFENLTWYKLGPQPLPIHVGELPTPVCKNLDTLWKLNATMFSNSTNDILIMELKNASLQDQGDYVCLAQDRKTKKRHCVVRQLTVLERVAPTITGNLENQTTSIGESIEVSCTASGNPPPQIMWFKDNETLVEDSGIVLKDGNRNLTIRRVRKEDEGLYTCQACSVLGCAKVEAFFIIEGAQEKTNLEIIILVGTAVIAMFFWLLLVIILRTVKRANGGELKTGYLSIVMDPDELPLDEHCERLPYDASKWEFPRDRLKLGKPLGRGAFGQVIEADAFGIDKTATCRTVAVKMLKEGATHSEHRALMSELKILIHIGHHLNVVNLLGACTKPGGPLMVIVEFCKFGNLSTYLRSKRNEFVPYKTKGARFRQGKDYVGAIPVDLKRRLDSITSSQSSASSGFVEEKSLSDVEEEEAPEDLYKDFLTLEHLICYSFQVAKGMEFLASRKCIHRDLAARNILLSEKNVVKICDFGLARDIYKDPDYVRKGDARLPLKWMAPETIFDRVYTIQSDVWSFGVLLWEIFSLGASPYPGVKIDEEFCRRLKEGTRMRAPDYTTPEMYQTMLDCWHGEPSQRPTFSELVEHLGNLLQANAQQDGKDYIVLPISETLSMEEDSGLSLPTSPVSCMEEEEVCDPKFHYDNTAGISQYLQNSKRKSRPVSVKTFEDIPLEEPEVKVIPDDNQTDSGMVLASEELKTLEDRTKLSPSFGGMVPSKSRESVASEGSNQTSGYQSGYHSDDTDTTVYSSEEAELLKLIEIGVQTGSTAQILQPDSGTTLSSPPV
Chain of Fibroblast growth factor receptor 2 (P21802 whole entry): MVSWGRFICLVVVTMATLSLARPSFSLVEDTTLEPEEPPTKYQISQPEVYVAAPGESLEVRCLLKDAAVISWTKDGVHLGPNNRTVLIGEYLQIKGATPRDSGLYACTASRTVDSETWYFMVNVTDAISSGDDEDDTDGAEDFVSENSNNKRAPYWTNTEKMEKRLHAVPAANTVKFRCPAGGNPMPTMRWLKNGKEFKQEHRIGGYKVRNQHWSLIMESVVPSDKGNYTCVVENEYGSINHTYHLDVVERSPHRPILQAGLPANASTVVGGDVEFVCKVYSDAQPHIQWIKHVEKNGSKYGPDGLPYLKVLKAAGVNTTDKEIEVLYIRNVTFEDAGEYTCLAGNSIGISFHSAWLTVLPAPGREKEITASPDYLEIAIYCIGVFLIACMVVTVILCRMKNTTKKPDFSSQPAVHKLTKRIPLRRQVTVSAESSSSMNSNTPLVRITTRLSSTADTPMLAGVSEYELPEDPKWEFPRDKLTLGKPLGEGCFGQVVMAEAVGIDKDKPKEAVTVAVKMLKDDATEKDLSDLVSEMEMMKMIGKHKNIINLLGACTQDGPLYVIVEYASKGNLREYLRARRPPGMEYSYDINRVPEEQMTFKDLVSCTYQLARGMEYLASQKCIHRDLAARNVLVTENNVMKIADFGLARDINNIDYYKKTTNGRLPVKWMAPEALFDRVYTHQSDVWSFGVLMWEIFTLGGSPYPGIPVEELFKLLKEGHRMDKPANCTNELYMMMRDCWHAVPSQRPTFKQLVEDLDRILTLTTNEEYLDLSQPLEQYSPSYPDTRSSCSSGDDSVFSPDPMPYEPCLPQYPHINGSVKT
Chain of Vascular endothelial growth factor receptor 1 (P17948 whole entry): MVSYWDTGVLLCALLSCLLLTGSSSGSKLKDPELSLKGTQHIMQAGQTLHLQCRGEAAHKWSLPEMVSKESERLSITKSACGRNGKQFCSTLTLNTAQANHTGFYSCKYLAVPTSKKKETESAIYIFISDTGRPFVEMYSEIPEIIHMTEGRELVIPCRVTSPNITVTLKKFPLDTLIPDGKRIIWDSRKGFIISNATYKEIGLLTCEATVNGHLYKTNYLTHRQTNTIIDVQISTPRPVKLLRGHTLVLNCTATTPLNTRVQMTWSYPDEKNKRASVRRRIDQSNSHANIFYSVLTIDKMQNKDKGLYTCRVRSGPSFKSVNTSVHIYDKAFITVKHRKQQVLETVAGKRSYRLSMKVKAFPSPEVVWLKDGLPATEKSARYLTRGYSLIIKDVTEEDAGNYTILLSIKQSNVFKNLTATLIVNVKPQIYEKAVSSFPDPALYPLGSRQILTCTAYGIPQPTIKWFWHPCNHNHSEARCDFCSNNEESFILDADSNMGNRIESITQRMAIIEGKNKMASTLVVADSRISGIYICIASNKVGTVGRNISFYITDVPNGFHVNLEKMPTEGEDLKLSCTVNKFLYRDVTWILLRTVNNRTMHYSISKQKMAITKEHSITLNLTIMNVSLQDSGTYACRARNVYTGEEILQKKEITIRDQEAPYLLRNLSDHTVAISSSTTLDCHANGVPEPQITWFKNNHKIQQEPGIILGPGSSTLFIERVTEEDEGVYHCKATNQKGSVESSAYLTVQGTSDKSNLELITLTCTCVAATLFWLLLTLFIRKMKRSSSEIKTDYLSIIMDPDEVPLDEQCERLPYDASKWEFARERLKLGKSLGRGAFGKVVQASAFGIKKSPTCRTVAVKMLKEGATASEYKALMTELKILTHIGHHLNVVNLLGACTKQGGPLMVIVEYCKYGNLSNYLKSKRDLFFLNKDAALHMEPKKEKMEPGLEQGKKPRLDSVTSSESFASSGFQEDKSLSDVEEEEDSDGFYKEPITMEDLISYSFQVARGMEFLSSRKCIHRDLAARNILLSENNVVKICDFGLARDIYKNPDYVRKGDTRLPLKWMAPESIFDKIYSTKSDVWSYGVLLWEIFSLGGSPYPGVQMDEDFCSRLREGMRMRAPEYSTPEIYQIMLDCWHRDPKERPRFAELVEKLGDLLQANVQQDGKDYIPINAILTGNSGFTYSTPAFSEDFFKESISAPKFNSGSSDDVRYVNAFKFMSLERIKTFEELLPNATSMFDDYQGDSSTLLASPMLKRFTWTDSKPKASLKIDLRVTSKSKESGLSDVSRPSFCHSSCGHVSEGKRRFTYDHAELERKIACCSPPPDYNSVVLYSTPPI

## COc1cc2ncnc(Sc3nnc(C)s3)c2cc1OC
[1]
  inhibition (INH): 80%
[2]
  IC50: 32 nM
[3]
  inhibition in vivo at 100 mg/kg: 72%
[4]
  inhibition at 10 µM: 98%
[5]
  inhibition in vivo at 100 mg/kg: 63%

## CNC(=O)c1cccc2cc(Oc3ccnc4cc(OCC5(N)CC5)c(OC)cc34)ccc12
[6]
  IC50: 7 nM
[7]
  IC50: 17.5 nM
[2]
  IC50: 25 nM
[8]
  IC50: 82.5 nM
[9]
  IC50: 10 nM

## COc1cc2c(Oc3ccc(Nc4ccc(C(C)(C)C)cc4)cc3)ccnc2cc1OCCNCCO
[2]
  IC50: 69 nM
[10]
  IC50: 69 nM
[11]
  IC50: 69 nM
[8]
  IC50: 69 nM

## CCN1CCN(Cc2ccc(-c3cc4c(N[C@H](C)c5ccccc5)ncnc4[nH]3)cc2)CC1 [AEE-788]
[6]
  IC50: 59 nM
[2]
  IC50: 77 nM

## COc1cc2nccc(Oc3ccc(NC(=O)NC4CC4)c(Cl)c3)c2cc1C(N)=O [LENVATINIB]
[9]
  IC50: 5.2 nM

## NC(=O)c1c(OCc2c(F)cc(Br)cc2F)nsc1NC(=O)NCCCCN1CCCC1 [OSI-632]
[12]
  IC50: 9 nM
[13]
  TGI: 85%

## O=C(Nc1ccc(OC(F)(F)F)cc1)c1sccc1NCc1ccnc2ccccc12 [OSI-930]
[14]
  IC50: 41 nM
[15]
  IC50: 22 nM
[10]
  IC50: 10 nM

## CNC(=O)c1cc(COc2nnc(Nc3ccc(Cl)cc3)c3ccoc23)ccn1 [TELATINIB]
[9]
  IC50: 4 nM
